One series relates to SKOV3 cells. Description: TUNEL apoptosis assay, SKOV3. In kind it is cell-based, human. The settings on record: sensitive and resistant cell lines. How it is done:
Terminal deoxynucleotidyl transferase-mediated nick end labeling-positive cells were detected using Dead End Fluorometric terminal deoxynucleotidyl transferase-mediated nick end labeling system (APO-DIRECT, BD Biosciences/PharMingen, San Diego, Calif.) according to the manufacturer's instructions. […] Cells were fixed with 4% paraformaldehyde solution for 25 minutes on ice. Intracellular DNA fragments were then labeled by exposing cells to fluorescein-12-dUTP, treated with propidium iodide and RNaseA solution, and analyzed by flow cytometry (EPICS XL, Beckman Coulter, Miami, Fla.). The percentages of apoptotic cells were averaged over three consecutive experiments.

Another series has as its system Murine FAK. Description: FAK siRNA treatment of murine endothelial cells. In kind it is cell-based, mouse. The settings on record: murine endothelial cells from the ovary of ImmortoMice. From the text:
To determine potential mechanisms underlying the efficacy of anti-FAK based therapy, its effects on several biological endpoints were examined, including angiogenesis (MVD), proliferation (PCNA), and apoptosis (TUNEL). Due to growing evidence related to FAK and tumor angiogenesis (Kornberg et al., 2004; Mitra et al., 2005). The inventors evaluated vessel density (FIG. 14B) in the tumors harvested from the studies described above. […] To determine if FAK siRNA mediated in vivo effects on endothelial cells were direct, the inventors treated murine endothelial cells isolated from the ovary of ImmortoMice (H-2k(b)-ts A58) (Langley et al., 2003) with FAK siRNA. Murine FAK levels were not altered by the FAK siRNA used for the in vivo studies (data not shown).

The subject of series [1] is SKOV3-TR and HeyA8-MDR cells. Description: TUNEL apoptosis assay, taxane-resistant cells. It counts as cell-based, human. The settings on record: FAK siRNA with or without docetaxel. As to the method:
Terminal deoxynucleotidyl transferase-mediated nick end labeling-positive cells were detected using Dead End Fluorometric terminal deoxynucleotidyl transferase-mediated nick end labeling system (APO-DIRECT, BD Biosciences/PharMingen, San Diego, Calif.) according to the manufacturer's instructions. Briefly, ovarian cancer cells in culture were treated with varying concentrations of docetaxel and harvested after 12, 24, 48, or 96 hours. Cells were fixed with 4% paraformaldehyde solution for 25 minutes on ice. Intracellular DNA fragments were then labeled by exposing cells to fluorescein-12-dUTP, treated with propidium iodide and RNaseA solution, and analyzed by flow cytometry (EPICS XL, Beckman Coulter, Miami, Fla.). The percentages of apoptotic cells were averaged over three consecutive experiments.

A further series concerns HeyA8 cells. The experiment in a line: Cytotoxicity assay (MTT), HeyA8. It counts as cell-based, human. The note with it: HeyA8; siRNA 48 hours before docetaxel; at 50% cytotoxicity. As to the method: (§1) The medium was exchanged after 48 hours with increasing concentrations of docetaxel (obtained from Aventis Pharma, Bridgewater, N.J.) dissolved in ethanol (final concentration range, 0.1-10,000 nmol/L prepared in medium) or cisplatin (purchased from LKT Laboratories, Inc., St. Paul, Minn.) dissolved in water. After a 96-hour incubation, 50 μL of 0.15% 3-(4,5-dimethylthiazol-2-yl)-2,5-diphenyltetrazolium bromide was added to each well and incubated for 2 hours. The supernatant was removed, and cells were dissolved in 100 μL DMSO. The absorbance at 570 nm was recorded using a FALCON microplate reader (Becton Dickinson Labware, Bedford, Mass.), and cell survival expressed as a percent increase or decrease above control conditions, after subtracting blank A570 readings. The IC50 concentration was determined by finding the A570 reading midpoint between maximal and minimal readings and finding the chemotherapy concentration that intersects the growth curve at that A570 reading.

The next series has as its system HeyA8-MDR cells. The experiment in a line: Cytotoxicity assay (MTT), HeyA8-MDR. The settings on record: HeyA8-MDR; siRNA 48 hours before docetaxel. It counts as cell-based, human. As to the method: as §1

d = 2'-deoxy (DNA); r = 2'-OH (RNA)

“control siRNA: sense r(UUUUCCGAACGUGUCACGU)dTT, antisense r(ACGUGACACGUUCGGAGAA)dTT, no homology with human mRNA; in vivo in DOPC (sense UUUUCCGAACGUGUCACGUTT; antisense ACGUGACACGUUCGGAGAATT; sugars from the 5' end r19 d2, backbone not given here)”: the “apoptosis in combination with docetaxel” value in the series on SKOV3 cells was “did not enhance apoptosis in combination with docetaxel”.
For “FAK siRNA: sense r(CCACCUGGGCCAGUAUUAU)d(TT), antisense r(AUAAUACUGGCCCAGGUGG)d(TT); for in vivo delivery incorporated into DOPC (sense CCACCUGGGCCAGUAUUAUTT; antisense AUAAUACUGGCCCAGGUGGTT; sugars from the 5' end r19 d2, backbone not given here)”, in the series on Murine FAK, the “Murine FAK levels” value is on record as “not altered”. Also, the apoptosis entry in series [1] is recorded as “neither agent alone induced much apoptosis”. In addition, in the series with HeyA8 cells, the “fold greater docetaxel cytotoxicity after FAK down-regulation” value is recorded as 8 fold. In addition, the “fold increase in sensitivity to docetaxel” value with HeyA8-MDR cells stood at 5.5 fold.

For the origin of these results see patent US8895717B2, “Delivery of siRNA by neutral lipid compositions” (The Board of Regents of the University of Texas System, priority 2005, dated 2014).
